Assay results: ChEMBL document CHEMBL5625164, “Design, synthesis, and evaluation of new anti-inflammatory natural products amide derivatives endowed with anti-blood cancer activity towards development of potential multifunctional agents against hematological cancers” (Eur J Med Chem, 2023)
pIC50: −log10 of the molar value. Active and inactive are the calls of the source. The calls are words filed in the database; no cut-off is given here.

What was measured:
[1] = Cytotoxicity against mouse RAW264.7 cells assessed as macrophage viability at 10 uM relative to control; type: toxicity, cell-based; details: read-out: Activity
[2] = system: BV-2; experiment: Anti-inflammatory activity against mouse BV-2 cells assessed as inhibition of LPS-induced NO production at 10 uM pretreated for 2 hrs followed stimulated with LPS for 22 hrs by Griess reaction assay relative to control; type: functional; details: time 24 hrs
[3] = system: BV-2; experiment: Anti-inflammatory activity against mouse BV-2 cells assessed as inhibition of LPS-induced NO production pretreated for 2 hrs followed stimulated with LPS for 22 hrs by Griess reaction assay; type: functional, cell-based
[4] = system: BV-2; experiment: Anti-inflammatory activity against mouse BV-2 cells assessed as inhibition of LPS-induced PGE2 production pretreated for 2 hrs followed stimulated with LPS for 22 hrs; type: functional, cell-based
[5] = system: BV-2; experiment: Anti-inflammatory activity against mouse BV-2 cells assessed as inhibition of LPS-induced PGE2 production pretreated for 2 hrs followed stimulated with LPS for 22 hrs at 10 uM relative to control; type: functional; details: time 24 hrs
[6] = system: BV-2; experiment: Anti-inflammatory activity against mouse BV-2 cells assessed as inhibition of LPS-induced TNFalpha production pretreated for 2 hrs followed stimulated with LPS for 22 hrs; type: functional, cell-based
[7] = system: CCRF-CEM; experiment: Anticancer activity against human CCRF-CEM cells assessed as growth inhibition at 10 uM measured after 48 hrs by SRB assay relative to control; type: functional; details: read-out: GI
[8] = system: HL-60; experiment: Anticancer activity against human HL-60 cells assessed as growth inhibition at 10 uM measured after 48 hrs by SRB assay relative to control; type: functional; details: for inhibition of growth at 10 µM: read-out: GI
[9] = system: K562; experiment: Anticancer activity against human K562 cells assessed as growth inhibition at 10 uM measured after 48 hrs by SRB assay relative to control; type: functional; details: read-out: GI
[10] = system: MOLT-4; experiment: Anticancer activity against human MOLT-4 cells assessed as growth inhibition at 10 uM measured after 48 hrs by SRB assay relative to control; type: functional; details: read-out: GI
[11] = system: RPMI-8226; experiment: Anticancer activity against human RPMI-8226 cells assessed as growth inhibition at 10 uM measured after 48 hrs by SRB assay relative to control; type: functional; details: read-out: GI
[12] = system: SR; experiment: Anticancer activity against human SR cells assessed as growth inhibition at 10 uM measured after 48 hrs by SRB assay relative to control; type: functional; details: read-out: GI
[13] = system: CCRF-CEM; experiment: Anticancer activity against human CCRF-CEM cells assessed as growth inhibition measured after 48 hrs by SRB assay relative to control; type: functional
[14] = system: HL-60; experiment: Anticancer activity against human HL-60 cells assessed as growth inhibition measured after 48 hrs by SRB assay relative to control; type: functional
[15] = system: K562; experiment: Anticancer activity against human K562 cells assessed as growth inhibition measured after 48 hrs by SRB assay relative to control; type: functional
[16] = system: MOLT-4; experiment: Anticancer activity against human MOLT-4 cells assessed as growth inhibition measured after 48 hrs by SRB assay relative to control; type: functional
[17] = system: RPMI-8226; experiment: Anticancer activity against human RPMI-8226 cells assessed as growth inhibition measured after 48 hrs by SRB assay relative to control; type: functional
[18] = system: SR; experiment: Anticancer activity against human SR cells assessed as growth inhibition measured after 48 hrs by SRB assay relative to control; type: functional
[19] = system: BV-2; experiment: Anti-inflammatory activity against mouse BV-2 cells assessed as inhibition of LPS-induced TNFalpha production pretreated for 2 hrs followed stimulated with LPS for 22 hrs at 10 uM relative to control; type: functional; details: time 24 hrs
[20] = Cytotoxicity against mouse RAW264.7 cells assessed as macrophage viability at 40 uM relative to control; type: toxicity, cell-based; details: read-out: Activity
[21] = system: BV-2; experiment: Anti-inflammatory activity against mouse BV-2 cells assessed as inhibition of LPS-induced NO production at 40 uM pretreated for 2 hrs followed stimulated with LPS for 22 hrs by Griess reaction assay relative to control; type: functional; details: time 24 hrs

SMILES: COc1ccc(NC(=O)c2cccc(C3CC(=O)c4c(cc(OC)c(OC)c4OC)O3)c2)cc1 (racemic)
- viability at 10 µM [1]: 111%
- inhibition at 10 µM [2]: 28.6%

SMILES: COc1cc2c(c(OC)c1OC)C(=O)CC(c1cccc(C(=O)Nc3cccc([N+](=O)[O-])c3)c1)O2 (racemic)
- viability at 10 µM [1]: 111%
- pIC50 [3]: 4.83
- inhibition at 10 µM [2]: 42.7%
- pIC50 [4]: 4.97
- inhibition at 10 µM [5]: 31.4%
- pIC50 [6]: < 4.70
- inhibition of growth at 10 µM [7]: 89.7%
- inhibition of growth at 10 µM [8]: 49.4%
- inhibition of growth at 10 µM [9]: 63.5%
- inhibition of growth at 10 µM [10]: 77.2%
- inhibition of growth at 10 µM [11]: 82.7%
- inhibition of growth at 10 µM [12]: 66.2%

SMILES: Cc1ccc(NC(=O)c2ccc(CN3CCN(C)CC3)cc2)cc1Nc1nccc(-c2cccnc2)n1 [IMATINIB]
- inhibition of growth at 10 µM [7]: 6.6%
- growth inhibition (GI) [8]: inactive
- inhibition of growth at 10 µM [10]: 18%
- inhibition of growth at 10 µM [11]: 12.6%
- inhibition of growth at 10 µM [12]: 14.6%
- GI50 [13]: 17 µM
- GI50 [14]: 13.5 µM
- GI50 [15]: 0.05 µM
- GI50 [16]: 5.13 µM
- GI50 [17]: 6.17 µM
- GI50 [18]: 7.24 µM

SMILES: COc1ccc(C(=O)Nc2cccc(C3CC(=O)c4c(cc(OC)c(OC)c4OC)O3)c2)cc1 (racemic)
- viability at 10 µM [1]: 102%
- inhibition at 10 µM [2]: 15.2%

SMILES: COc1ccccc1C(=O)Nc1cccc(C2CC(=O)c3c(cc(OC)c(OC)c3OC)O2)c1 (racemic)
- viability at 10 µM [1]: 103%
- inhibition at 10 µM [2]: 14.3%

SMILES: COc1cc2c(c(OC)c1OC)C(=O)CC(c1cccc(NC(=O)c3cccc(Br)c3)c1)O2 (racemic)
- viability at 10 µM [1]: 105%
- inhibition at 10 µM [2]: 14.2%

SMILES: COc1cc2c(c(OC)c1OC)C(=O)CC(c1cccc(NC(=O)c3ccccc3Br)c1)O2 (racemic)
- viability at 10 µM [1]: 101%
- pIC50 [3]: 4.88
- inhibition at 10 µM [2]: 41.4%
- inhibition at 10 µM [5]: 39%
- pIC50 [6]: 5.14
- inhibition at 10 µM [19]: 62.4%
- inhibition of growth at 10 µM [7]: 26.9%
- inhibition of growth at 10 µM [9]: 29.8%
- inhibition of growth at 10 µM [10]: 30.4%
- inhibition of growth at 10 µM [11]: 41.8%
- inhibition of growth at 10 µM [12]: 31.6%

SMILES: CC(=N)NCCCC[C@H](N)C(=O)O [L-NIL]
- viability at 40 µM [20]: 106%
- inhibition at 40 µM [21]: 54.3%

SMILES: COc1cc2c(c(OC)c1OC)C(=O)CC(c1cccc(C(=O)Nc3ccccc3)c1)O2 (racemic)
- viability at 10 µM [1]: 110%
- inhibition at 10 µM [2]: 24.2%

SMILES: COc1cc2c(c(OC)c1OC)C(=O)CC(c1cccc(NC(=O)c3ccc([N+](=O)[O-])cc3)c1)O2 (racemic)
- viability at 10 µM [1]: 104%
- pIC50 [3]: 4.70
- inhibition at 10 µM [2]: 35.8%
- pIC50 [4]: 5.01
- inhibition at 10 µM [5]: 51.6%
- Activity ([6]; time 24.0 hrs): Dose-Dependent Effect
- inhibition at 10 µM [19]: 54.6%
- inhibition of growth at 10 µM [7]: 75.6%
- inhibition of growth at 10 µM [9]: 64.6%
- inhibition of growth at 10 µM [10]: 84.2%
- inhibition of growth at 10 µM [11]: 66.6%
- inhibition of growth at 10 µM [12]: 73.8%

SMILES: COc1cc2c(c(OC)c1OC)C(=O)CC(c1cccc(NC(=O)c3ccc(C#N)cc3)c1)O2 (racemic)
- viability at 10 µM [1]: 115%
- inhibition at 10 µM [2]: 26.8%

SMILES: COc1cccc(NC(=O)c2cccc(C3CC(=O)c4c(cc(OC)c(OC)c4OC)O3)c2)c1 (racemic)
- viability at 10 µM [1]: 112%
- inhibition at 10 µM [2]: 21.9%

SMILES: COc1cc2c(c(OC)c1OC)C(=O)CC(c1cccc(C(=O)Nc3cccc(Cl)c3)c1)O2 (racemic)
- viability at 10 µM [1]: 93.9%
- inhibition at 10 µM [2]: 24.6%

SMILES: COc1cc2c(c(OC)c1OC)C(=O)CC(c1cccc(C(=O)Nc3ccc(C#N)cc3)c1)O2 (racemic)
- viability at 10 µM [1]: 122%
- inhibition at 10 µM [2]: 21.2%

SMILES: COc1cc2c(c(OC)c1OC)C(=O)CC(c1cccc(C(=O)Nc3cccc(Br)c3)c1)O2 (racemic)
- viability at 10 µM [1]: 97.9%
- pIC50 [3]: 4.93
- inhibition at 10 µM [2]: 46.3%
- pIC50 [4]: 4.96
- inhibition at 10 µM [5]: 19.8%
- pIC50 [6]: 4.81
- inhibition at 10 µM [19]: 39.5%
- inhibition of growth at 10 µM [7]: 55%
- inhibition of growth at 10 µM [8]: 8.2%
- inhibition of growth at 10 µM [9]: 50.2%
- inhibition of growth at 10 µM [10]: 51.2%
- inhibition of growth at 10 µM [11]: 53.2%

SMILES: COc1cc2c(c(OC)c1OC)C(=O)CC(c1cccc(C(=O)Nc3ccc(Br)cc3)c1)O2 (racemic)
- viability at 10 µM [1]: 113%
- pIC50 [3]: 4.88
- inhibition at 10 µM [2]: 41.2%
- pIC50 [4]: 4.99
- inhibition at 10 µM [5]: 62.6%
- pIC50 [6]: 4.77
- inhibition at 10 µM [19]: 24.9%
- inhibition of growth at 10 µM [7]: 90.7%
- inhibition of growth at 10 µM [8]: 86.3%
- inhibition of growth at 10 µM [9]: 93.8%
- inhibition of growth at 10 µM [10]: 101%
- inhibition of growth at 10 µM [11]: 85.4%
- inhibition of growth at 10 µM [12]: 77.8%

SMILES: COc1cc2c(c(OC)c1OC)C(=O)CC(c1cccc(C(=O)Nc3ccccc3Br)c1)O2 (racemic)
- viability at 10 µM [1]: 101%
- inhibition at 10 µM [2]: 9.4%

SMILES: COc1cc2c(c(OC)c1OC)C(=O)CC(c1cccc(C(=O)Nc3cccnc3)c1)O2 (racemic)
- viability at 10 µM [1]: 109%
- inhibition at 10 µM [2]: 10.5%

SMILES: COc1cc2c(c(OC)c1OC)C(=O)CC(c1cccc(NC(=O)c3ccccc3)c1)O2 (racemic)
- viability at 10 µM [1]: 97%
- inhibition at 10 µM [2]: 23.5%

SMILES: COc1cc2c(c(OC)c1OC)C(=O)CC(c1cccc(C(=O)Nc3cccc(F)c3)c1)O2 (racemic)
- viability at 10 µM [1]: 110%
- inhibition at 10 µM [2]: 25.8%

SMILES: COc1cc2c(c(OC)c1OC)C(=O)CC(c1cccc(NC(=O)c3cccc(Cl)c3)c1)O2 (racemic)
- viability at 10 µM [1]: 100%
- inhibition at 10 µM [2]: 32.3%

SMILES: COc1cc2c(c(OC)c1OC)C(=O)CC(c1cccc(C(=O)Nc3ccncc3)c1)O2 (racemic)
- viability at 10 µM [1]: 91.3%
- inhibition at 10 µM [2]: 16%

SMILES: COc1cccc(C(=O)Nc2cccc(C3CC(=O)c4c(cc(OC)c(OC)c4OC)O3)c2)c1 (racemic)
- viability at 10 µM [1]: 98%
- inhibition at 10 µM [2]: 32.1%

SMILES: COc1ccccc1NC(=O)c1cccc(C2CC(=O)c3c(cc(OC)c(OC)c3OC)O2)c1 (racemic)
- viability at 10 µM [1]: 103%
- inhibition at 10 µM [2]: 19.7%

SMILES: COc1cccc(CNC(=O)c2cccc(C3CC(=O)c4c(cc(OC)c(OC)c4OC)O3)c2)c1 (racemic)
- viability at 10 µM [1]: 107%
- inhibition at 10 µM [2]: 24.7%
